Test results as given in patent EP1022029A1, “NOOTROPIC AGENT” (priority 1997, dated 1999).
Like-named read-outs stand apart in the source and are kept apart here.

Columns and labels:
[1] = system: mutant ACh receptors (mγΔPKA/Ser353,354m δΔPKA/Ser361,362) lacking PKA phosphorylation sites; assay: ACh-evoked currents in mutant ACh receptors lacking PKA phosphorylation sites expressed in Xenopus oocytes; type: cell-based; details: nefiracetam 0.01 µM; 30 min after treatment; n=7
Description: (§1) ACh (100 µM) was applied to each of an oocyte expressing normal ACh receptors and an oocyte expressing mutant ACh receptors (mγΔPKA/Ser353, 354m δΔPKA/Ser361,362) lacking PKA phosphorylation sites, before and after treatment with nefiracetam (0.01 µM). The oocytes expressing normal ACh receptors were treated with H-89 (1 µM) from 15 min before recording, or with pertussis toxin (0.1 µg/ml) for 24h prior to experiments. The currents illustrated in Table 16 were recorded before and 30 min after treatment with nefiracetam. The holding voltage was - 30 mV. In Table 16, each point represents the average obtained from seven oocytes.
To further examine whether the current depression by nefiracetam is due to PKA phosphorylation of the receptors or not, mutant ACh receptors lacking potent PKA phosphorylation sites on the γ and δ subunits (mγΔ PKA/Ser353,354m δΔPKA/Ser361,362) were expressed in Xenopus oocytes.

[2] = target: T1, nACh receptors (α, β, γ, δ) of Torpedo (Tetronarce californica, UniProt P02710+P02712+P02714+P02718); assay: ACh-evoked currents in normal nACh receptors expressed in Xenopus oocytes (two-electrode voltage clamp); type: cell-based
T1 construct: expressed in transfected cells; host or cells: Xenopus oocytes
Description: Cell membrane currents were recorded by use of two-electrode voltage clamp techniques (T. Nishizaki et al., Ikeuchi, Brain Res. 687, 214, 1995). ACh (100 µM) was administered to a single oocyte expressing normal ACh receptors at 10-min intervals before and after 10-min treatment of the oocyte with nefiracetam. The holding voltage was -30 mV. In accordance with a conventional method, wild-type acetylcholine (nACh) receptors were expressed in Xenopus oocytes (K. Sumikawa et al., Mol. Brain Res. 5, 183, 1989), and by the application of ACh (100 µM), inward membrane currents were evoked (Table 13). Currents were recorded at 10-min intervals. During the recording period, spontaneous attenuation of the currents was within 5% (data not shown). […] After the drug was washed out, the amplitude gradually recovered (Table 13). The reductions in current were 70% (n=7) with 0.01 µM and 62% with 0.1 µM nefiracetam.
as §1
ACh (100 µM) was applied to each of an oocyte expressing normal ACh receptors and an oocyte expressing mutant ACh receptors (mγΔPKA/Ser353,354m δΔPKA/Ser361,362) lacking PKA phosphorylation sites, in the presence and absence of GF109203X (100 nM) or in calcium-free extracellular solution.

[3] = target: T2, α7 receptor (Rattus norvegicus, UniProt Q05941); assay: ACh-evoked currents in α7 receptors expressed in Xenopus oocytes (two-electrode voltage clamp); type: cell-based; details: for normalized response (%): nef(+), n=5
T2 construct: expressed in transfected cells; host or cells: Xenopus oocytes injected with in vitro transcribed mRNA
Description: Two-electrode voltage-clamp technique was used to record expression α4β2 or α7 receptors in oocytes. […] The holding voltage was -30 or -60 mV for α4β2-nAChR or α7-nAChR, respectively. Downward directions correspond to inward currents.
mRNAs for the rat α4β2 receptor and α7 receptor, GLUR1, 2, 3 receptors, and NP152 and NP153 were constructed as described previously. Xenopus oocytes were manually separated from the ovary, and subjected to treatment with collagenase (0.5 mg/ml). Thereafter, the treated oocytes were incubated overnight in Barth's solution (in mM, 88 NaCl, 1 KCl, 2.4 NaHCO3, 0.82 MgSO4, 0.33 […], 0.41 CaCl2, and 7.5 Tris; pH 7.6). The oocytes were injected with the α4β2 or α7 receptor mRNA and incubated at 18°C. In some cases, NP152 and NP153 were co-expressed with the α4β2 and α7 receptors. The injected oocytes were incubated and transferred to a recording chamber 2-7 days after incubation and continuously superfused at room temperature (20-22°C) with a standard frog Ringer's solution [in mM: 115 NaCl, 2 KCl, 1.8 CaCl2, 5 HEPES; pH 7.0]. To remove the effect of endogenous muscarinic ACh receptor, 1 µM atropine was added to the extracellular solution. ACh-evoked currents were recorded by use of two-electrode voltage clamp techniques and an amplifier (GeneClamp-500, Axon Instrument, Inc. USA). The currents were analyzed on a microcomputer by pClamp software (Axon Instrument, Inc.; Version 6). From the results, an assessment was made as to whether nefiracetam actually acts on the nACh receptors.

[4] = system: postsynaptic potential of a slice of the rat hippocampus; assay: Paired-pulse facilitation of the postsynaptic potential in hippocampal slices; type: cell-based; details: nefiracetam-administered slices; interpulse intervals 50 to 150 msec
Description: Paired pulses were applied to slices at varying interpulse intervals, between 50 and 150 msec before and 10 minute after the administration of nefiracetam. […] Briefly, reaction induced by the first pulse application was potentiated to a maximum of 120% by the next pulse application. However, the pulses were consistently lower than those obtained with slices that had not been administered nefiracetam (Table 6); therefore, nefiracetam is considered to maximally enhance release of glutamate serving as an excitatory neurotransmitter.

[5] = system: postsynaptic potentials evoked from the hippocampal CA1 region; assay: Postsynaptic potentials recorded in the CA1 pyramidal cell layer of rat hippocampal slices; type: cell-based
[6] = system: excitatory postsynaptic potential in the brain; assay: Excitatory postsynaptic potential (PS) in the brain in vivo, hippocampal granular cell layer; set-up: species or system mice
Description: A group of mice were provided. The head of each mouse was fixed, and electrodes were inserted into the granular cell layer of the hippocampal region. PS was recorded. Nefiracetam was intramuscularly injected (7.5 mg/kg). […] This effect was confirmed even after 960 minutes. Thus, the effect obtained in vitro was also confirmed in an in vivo experiment […].

T2 sequence (Q05941 23-502): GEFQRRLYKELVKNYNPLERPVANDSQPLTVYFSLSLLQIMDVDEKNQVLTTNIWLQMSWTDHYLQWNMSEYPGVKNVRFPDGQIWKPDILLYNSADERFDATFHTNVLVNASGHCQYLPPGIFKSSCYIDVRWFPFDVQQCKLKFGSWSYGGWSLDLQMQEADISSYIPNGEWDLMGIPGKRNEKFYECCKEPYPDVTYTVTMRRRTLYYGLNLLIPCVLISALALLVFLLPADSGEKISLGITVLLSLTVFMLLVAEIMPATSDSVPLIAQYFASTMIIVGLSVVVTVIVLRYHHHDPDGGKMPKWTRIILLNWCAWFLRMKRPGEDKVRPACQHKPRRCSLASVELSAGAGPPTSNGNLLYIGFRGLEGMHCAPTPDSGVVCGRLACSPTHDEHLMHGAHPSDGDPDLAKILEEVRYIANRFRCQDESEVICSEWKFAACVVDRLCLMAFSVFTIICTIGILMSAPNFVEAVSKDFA
T1 sequence (P02718 22-522): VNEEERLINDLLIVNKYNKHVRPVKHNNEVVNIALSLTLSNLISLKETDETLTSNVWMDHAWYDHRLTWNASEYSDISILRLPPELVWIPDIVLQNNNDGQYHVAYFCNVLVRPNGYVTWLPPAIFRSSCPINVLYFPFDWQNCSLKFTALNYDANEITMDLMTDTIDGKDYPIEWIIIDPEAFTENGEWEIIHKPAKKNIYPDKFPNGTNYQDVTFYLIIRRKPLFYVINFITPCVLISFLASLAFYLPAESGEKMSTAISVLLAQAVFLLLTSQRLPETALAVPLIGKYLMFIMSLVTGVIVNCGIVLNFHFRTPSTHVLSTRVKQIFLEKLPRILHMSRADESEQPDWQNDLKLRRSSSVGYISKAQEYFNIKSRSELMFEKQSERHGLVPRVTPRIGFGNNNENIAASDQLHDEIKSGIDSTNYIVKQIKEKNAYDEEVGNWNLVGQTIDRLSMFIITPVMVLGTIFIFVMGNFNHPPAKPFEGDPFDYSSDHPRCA
T1 sequence (P02712 25-493): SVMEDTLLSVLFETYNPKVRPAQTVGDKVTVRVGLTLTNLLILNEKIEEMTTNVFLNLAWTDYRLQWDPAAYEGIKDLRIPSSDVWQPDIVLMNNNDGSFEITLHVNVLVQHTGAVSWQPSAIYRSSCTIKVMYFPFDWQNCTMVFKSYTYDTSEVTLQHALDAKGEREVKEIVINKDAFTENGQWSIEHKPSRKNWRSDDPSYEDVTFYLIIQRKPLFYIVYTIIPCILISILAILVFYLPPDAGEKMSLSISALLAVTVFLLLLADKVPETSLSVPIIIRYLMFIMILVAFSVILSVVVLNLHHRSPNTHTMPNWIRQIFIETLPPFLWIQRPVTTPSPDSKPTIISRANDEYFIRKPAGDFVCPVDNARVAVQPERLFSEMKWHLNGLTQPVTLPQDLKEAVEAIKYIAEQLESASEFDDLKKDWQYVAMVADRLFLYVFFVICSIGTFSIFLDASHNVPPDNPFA
T1 sequence (P02710 25-461): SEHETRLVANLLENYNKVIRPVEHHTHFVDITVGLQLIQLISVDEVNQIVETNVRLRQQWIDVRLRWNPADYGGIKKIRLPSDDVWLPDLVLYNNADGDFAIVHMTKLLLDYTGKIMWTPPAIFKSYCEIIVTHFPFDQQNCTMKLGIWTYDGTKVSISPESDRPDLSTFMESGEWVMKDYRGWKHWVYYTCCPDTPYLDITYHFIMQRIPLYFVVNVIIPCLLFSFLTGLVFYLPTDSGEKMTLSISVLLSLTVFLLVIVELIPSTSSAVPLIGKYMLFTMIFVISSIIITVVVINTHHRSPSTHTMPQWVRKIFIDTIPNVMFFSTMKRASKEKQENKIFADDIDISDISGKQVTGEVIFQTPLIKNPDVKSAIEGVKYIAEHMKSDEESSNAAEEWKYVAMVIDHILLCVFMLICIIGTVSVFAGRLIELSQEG
T1 sequence (P02714 18-506): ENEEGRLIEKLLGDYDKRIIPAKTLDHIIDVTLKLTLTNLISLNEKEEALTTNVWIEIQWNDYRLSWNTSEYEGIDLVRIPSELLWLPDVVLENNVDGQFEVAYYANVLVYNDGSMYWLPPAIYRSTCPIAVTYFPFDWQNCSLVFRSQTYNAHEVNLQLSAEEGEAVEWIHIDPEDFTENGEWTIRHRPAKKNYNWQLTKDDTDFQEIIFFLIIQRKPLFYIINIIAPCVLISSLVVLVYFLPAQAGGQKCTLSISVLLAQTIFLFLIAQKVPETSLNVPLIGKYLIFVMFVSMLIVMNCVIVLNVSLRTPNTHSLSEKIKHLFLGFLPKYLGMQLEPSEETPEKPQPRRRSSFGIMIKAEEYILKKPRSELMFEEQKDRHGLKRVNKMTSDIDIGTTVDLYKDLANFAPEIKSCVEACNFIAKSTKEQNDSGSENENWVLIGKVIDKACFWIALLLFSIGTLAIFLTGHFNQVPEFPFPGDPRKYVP

`Cc1cccc(C)c1NC(=O)CN1CCCC1=O` [nefiracetam, 2-oxo-1-pyrrolidinylacetic acid 2,6-dimethylanilide] was tested, and the “ACh-evoked currents increased to” value [1] was 159%, the inhibition at 0.01 µM ([2]; 0.01 µM nefiracetam for 10 min, n=7, read-out: reduction in ACh-evoked current) was 70% and the inhibition at 0.1 µM ([2]; 0.1 µM nefiracetam for 10 min, read-out: reduction in ACh-evoked current) was 62%. For the same compound, the activity at 1 µM ([2]; 1.5 h, 1 µM, 10-min treatment, 90 min after washing-out, n=7, read-out: ACh-evoked currents enhanced, reaching) was 243%, the activity at 10 µM ([2]; 1.5 h, 10 µM, 10-min treatment, 90 min after washing-out, n=7, read-out: ACh-evoked currents enhanced, reaching) was 255% and the “ACh-evoked currents reduced to” value ([2]; nefiracetam in the presence of GF109203X, 30 minutes after administration, n=7) was 60%. For the same compound, the “concentration of maximum potentiation of ACh-evoked currents” value [3] was 1 µM, the activity at 1 µM ([3]; 1 h, nefiracetam 1 µM, 60 minutes after treatment, read-out: ACh-evoked currents potentiated, reaching) was 195% and the “normalized response (%)” value ([3]; ACh 0.1 µM, nefiracetam 1 µM) was 0%. The “normalized response (%)” value ([3]; ACh 1 µM, nefiracetam 1 µM) was 1.5%, the “normalized response (%)” value ([3]; ACh 10 µM, nefiracetam 1 µM) was 3% and the “normalized response (%)” value ([3]; ACh 100 µM, nefiracetam 1 µM) was 35%. For the same compound, the “normalized response (%)” value ([3]; ACh 1000 µM, nefiracetam 1 µM) was 100%, the activity at 0.01 µM ([3]; Nefiracetam 0.01 µM, n = 5 to 8, read-out: % of the original amplitude) was 97.4 ± 5.5% and the activity at 0.1 µM ([3]; Nefiracetam 0.1 µM, n = 5 to 8, read-out: % of the original amplitude) was 181 ± 10.8%. The activity at 1 µM ([3]; Nefiracetam 1 µM, n = 5 to 8, read-out: % of the original amplitude) was 195 ± 8.8%, the activity at 10 µM ([3]; Nefiracetam 10 µM, n = 5 to 8, read-out: % of the original amplitude) was 116 ± 7.2% and the “currents potentiated to” value ([3]; in the presence of the inactive PKC inhibitory peptide (NP153; iPKCI)) was 193.6%. The “concentration at which potentiation of ACh-evoked currents was observed” value ([3]; lowest effective concentration) was at least 0.01 µM, the “paired-pulse facilitation: reaction to first pulse potentiated by the next pulse” value [4] was at most 120% and the “Postsynaptic potential (% of original amplitude)” value ([5]; Nefiracetam 0.01 µM, GF109203X(100nM), 10 min after treatment, n=5) was 50 ± 5%. The “Postsynaptic potential (% of original amplitude)” value ([5]; Nefiracetam 0.01 µM, H-89(1µM), 10 min after treatment, n=5) was 103 ± 8%, the “Postsynaptic potential (% of original amplitude)” value ([5]; Nefiracetam 1 µM, GF109203X(100nM), 10 min after treatment, n=5) was 108.8 ± 11.6% and the “Postsynaptic potential (% of original amplitude)” value ([5]; Nefiracetam 1 µM, H-89(1µM), 10 min after treatment, n=5) was 155 ± 8%. The activity at 0.01 µM ([5]; Rattus norvegicus, 10 min, Nefiracetam 0.01 µM, Control (no inhibitor), 10 min after treatment, n=5, read-out: Postsynaptic potential (% of original amplitude)) was 85 ± 5%, the activity at 1 µM ([5]; Rattus norvegicus, 10 min, Nefiracetam 1 µM, Control (no inhibitor), 10 min after treatment, n=5, read-out: Postsynaptic potential (% of original amplitude)) was 143 ± 2% and the activity at 1 µM ([5]; Rattus norvegicus, 1 h, 60 minutes after the 1 µM treatment, read-out: magnitude of maximum facilitation of the postsynaptic potentials) was about 150%. For the same compound, the activity at 0.001 µM ([5]; Rattus norvegicus, nefiracetam 0.001 µM, Mean ± SD, n = 5 to 7, read-out: Postsynaptic potential (% of original amplitude)) was 95 ± 6%, the activity at 0.01 µM ([5]; Rattus norvegicus, nefiracetam 0.01 µM, Mean ± SD, n = 5 to 7, read-out: Postsynaptic potential (% of original amplitude)) was 94 ± 5% and the activity at 0.1 µM ([5]; Rattus norvegicus, nefiracetam 0.1 µM, Mean ± SD, n = 5 to 7, read-out: Postsynaptic potential (% of original amplitude)) was 111 ± 9%. The activity at 1 µM ([5]; Rattus norvegicus, nefiracetam 1 µM, Mean ± SD, n = 5 to 7, read-out: Postsynaptic potential (% of original amplitude)) was 156 ± 6%, the activity at 10 µM ([5]; Rattus norvegicus, read-out: Postsynaptic potential (% of original amplitude), nefiracetam 10 µM, Mean ± SD, n = 5 to 7) was 144 ± 11% and the “concentrations giving short-term suppression of the postsynaptic potentials” value ([5]; biphasic effect, lower concentrations) was at most 0.1 µM. The “time after which potentiation of the excitatory postsynaptic potential was still confirmed” value ([6]; 7.5 mg/kg intramuscularly, mice) was at least 960 min and the “effect on excitatory postsynaptic potential (PS) in vivo” value ([6]; administered to animals) was “significant potentiation”.
